# Experimental data taken from patent publication US6245758A, “Methods of use for peroxynitrite decomposition catalysts, pharmaceutical compositions therefor” (priority 1996, dated 2001).
# Where a name gives a salt, the structure may show the parent alone.
# Tests used:
# [1] = Stopped-flow kinetic analysis of catalytic decomposition of peroxynitrite by metal complexes; settings: pH = 7.4, 22° C.
# Experimental: To screen metal complexes for peroxynitrite decomposition catalytic activity of the present invention, peroxynitrite is prepared and isolated as its sodium salt by the reaction of acidic hydrogen peroxide with sodium nitrite followed by rapid quenching with NaOH as set out by Halfpenny and Robinson, in J. Chem. So., 1952, 928-938. Peroxynitrite has an absorbance maximum at 302 nm with an extinction coefficient of 1670 M^-1 cm^-1. Therefore, it is possible to directly observe the decomposition of peroxynitrite by stop-flow spectrophotometric analysis by monitoring the decomposition of the absorbance at 302 nm. That is, such observation of the decomposition of peroxynitrite at a rate accelerated over the natural decomposition rate with the addition of the metal complex identifies a compound of the present invention.
# Kinetic measurements were made on an OLIS Rapid Scanning Stopped-Flow Spectrometer (On-Line Instrument Systems Inc., Bogart, Ga.)) using the OLISRSM-1000 Operating system for data acquisition and manipulation.
# Thus, in a typical experiment the natural background decomposition rate of sodium peroxynitrite was determined as follows. A 24 mM stock solution of sodium peroxynitrite in 50 mM NaOH is load into the small volume syringe and 100 mM potassium phosphate pH=7.4 is charged into the large volume syringe of the stopped-flow spectrophotometer. All stopped -flow measurements were made at 22 ° C. Injection of the solutions into the sample compartment results in ~25 fold dilution of the stock sodium peroxynitrite. […] To test for catalytic peroxynitrite decomposition activity, the metal complex was dissolved in 100 mM potassium phosphate buffer pH=7.4 and loaded into the large syringe and the decomposition of peroxynitrite was monitored as described above. The catalytic rate constant (kcat M-1 sec^-1) for the complexes tested was determined by varying the complex concentration and plotting kobs vs [complex] Table 1. The kobs were obtained from averages of three stopped flow analysis at each catalyst concentration.
# [2] = tested on: carrageenan-induced paw edema; assay: Carrageenan-induced paw edema; type: in vivo, rat
# Text: Carrageenan-induced paw edema. The effects of peroxynitrite catalysts in vivo were initially tested on the carrageenan-induced paw edema. The choice of using this in vivo model of inflammation was based on the knowledge that 1) the inflammatory response is blocked by NOS inhibitors and 2) by superoxide dismutase (SOD). This indicates the participation of both NO and of O2-. Male Sprague Dawley rats were purchased from Harlan Sprague-Dawley (Indianapolis, Ind.). Male Sprague Dawley rats (175-200 g) received a subplantar injection in the right hind paw of carrageenan (0.1 ml of a 1% suspension in 0.85% saline). Paw volume was measured by a plethysmometer immediately before the injection of carrageenan and then at hourly intervals from 1 to 6 h. Edema was expressed as the increase in paw volume (in ml) measured after carrageenan injection compared to the pre-injection value for individual animals.
# [3] = 30 mg/kg i.v., 1 h post carrageenan
# [4] = 30 mg/kg i.v., 2 h post carrageenan
# [5] = 30 mg/kg i.v., 3 h post carrageenan
# [6] = 30 mg/kg i.v., 4 h post carrageenan
# [7] = 30 mg/kg i.v., 5 h post carrageenan
# [8] = 30 mg/kg i.v., 6 h post carrageenan
compound,measurement,setting,value
"Cc1c(-c2c3nc(c(-c4c(C)c(S(=O)(=O)O)c(C)c(S(=O)(=O)O)c4C)c4ccc([nH]4)c(-c4c(C)c(S(=O)(=O)O)c(C)c(S(=O)(=O)O)c4C)c4nc(c(-c5c(C)c(S(=O)(=O)O)c(C)c(S(=O)(=O)O)c5C)c5ccc2[nH]5)C=C4)C=C3)c(C)c(S(=O)(=O)O)c(C)c1S(=O)(=O)O [Example H2TMPS, 5,10,15,20-tetrakis(3,5-disulfonatedmesityl)porphyrin octasodium salt]","kcat, catalytic rate constant for the decomposition of sodium peroxynitrite",[1],Inactive
same,inhibition of edema formation,[2]; 30 mg/kg i.v.,failed to inhibit edema formation
same,% Inhibition of Paw Edema,[2]; [3],0%
same,% Inhibition of Paw Edema,[2]; [4],0%
same,% Inhibition of Paw Edema,[2]; [5],0%
same,% Inhibition of Paw Edema,[2]; [6],0%
same,% Inhibition of Paw Edema,[2]; [7],0%
same,% Inhibition of Paw Edema,[2]; [8],0%
"COc1cccc(C=NCCN=Cc2cccc(OC)c2[O-])c1[O-].[Cl-].[Fe+3] [Fe(III)(3,3'MeO2 Salen)]","kcat, catalytic rate constant for the decomposition of sodium peroxynitrite",[1],50000 M⁻¹ s⁻¹
"O=C([O-])CC(O)(CC(=O)[O-])C(=O)[O-].[Fe+3] [Fe(III)Citrate, Iron(III)citrate, reference compound]","kcat, catalytic rate constant for the decomposition of sodium peroxynitrite",[1],15000 M⁻¹ s⁻¹
"O=C([O-])CN(CCN(CC(=O)[O-])CC(=O)[O-])CC(=O)[O-].[Fe+3] [Fe(III)EDTA, iron(III)EDTA, reference compound]","kcat, catalytic rate constant for the decomposition of sodium peroxynitrite",[1],20000 M⁻¹ s⁻¹
"[Cl][Fe]([Cl])[Cl] [FeCl3, reference compound]",inhibition of edema formation,"[2]; 5 mg/kg, n=6",failed to inhibit edema formation
"CC(=O)[O-].Cc1c(-c2c3nc(c(-c4c(C)c(S(=O)(=O)[O-])c(C)c(S(=O)(=O)[O-])c4C)c4ccc([n-]4)c(-c4c(C)c(S(=O)(=O)[O-])c(C)c(S(=O)(=O)[O-])c4C)c4nc(c(-c5c(C)c(S(=O)(=O)[O-])c(C)c(S(=O)(=O)[O-])c5C)c5ccc2[n-]5)C=C4)C=C3)c(C)c(S(=O)(=O)[O-])c(C)c1S(=O)(=O)[O-].[Mn+3].[Na+].[Na+].[Na+].[Na+].[Na+].[Na+].[Na+].[Na+] [Mn(III)TMPS, Acetato 5,10,15,20tetrakis(3,5,disulfonatomesityl)porphyrin Manganese(III) octasodium salt]","kcat, catalytic rate constant for the decomposition of sodium peroxynitrite",[1],29000 M⁻¹ s⁻¹
same,% Inhibition of Paw Edema,[2]; [3],0%
same,% Inhibition of Paw Edema,[2]; [4],0%
same,% Inhibition of Paw Edema,[2]; [5],0%
same,% Inhibition of Paw Edema,[2]; [6],0%
same,% Inhibition of Paw Edema,[2]; [7],0%
same,% Inhibition of Paw Edema,[2]; [8],0%
"CC1=NCCCNCCCN=C(C)c2cccc1n2.[Cl-].[Cl-].[Ni+2] [Ni(CR)Cl2, reference compound]","kcat, catalytic rate constant for the decomposition of sodium peroxynitrite",[1],Inactive
"Cc1c(-c2c3nc(c(-c4c(C)c(S(=O)(=O)[O-])c(C)c(S(=O)(=O)[O-])c4C)c4ccc([n-]4)c(-c4c(C)c(S(=O)(=O)[O-])c(C)c(S(=O)(=O)[O-])c4C)c4nc(c(-c5c(C)c(S(=O)(=O)[O-])c(C)c(S(=O)(=O)[O-])c5C)c5ccc2[n-]5)C=C4)C=C3)c(C)c(S(=O)(=O)[O-])c(C)c1S(=O)(=O)[O-].[Na+].[Na+].[Na+].[Na+].[Na+].[Na+].[Na+].[Na+].[Ni+2] [Ni(II)TMPS, Acetato-5,10,15,20-tetrakis(3,5-disulfonatomesityl)porphyrin Nickel (II) octasodium salt]","kcat, catalytic rate constant for the decomposition of sodium peroxynitrite",[1],87200 M⁻¹ s⁻¹
CC1=CC(C)=Nc2ccccc2[N-]C(C)=CC(C)=Nc2ccccc2[N-]1.[Ni+2] [Ni(II)[14]12eneN4],"kcat, catalytic rate constant for the decomposition of sodium peroxynitrite",[1],17000 M⁻¹ s⁻¹
"Cc1c(-c2c3nc(c(-c4c(C)c(S(=O)(=O)[O-])c(C)c(S(=O)(=O)[O-])c4C)c4ccc([n-]4)c(-c4c(C)c(S(=O)(=O)[O-])c(C)c(S(=O)(=O)[O-])c4C)c4nc(c(-c5c(C)c(S(=O)(=O)[O-])c(C)c(S(=O)(=O)[O-])c5C)c5ccc2[n-]5)C=C4)C=C3)c(C)c(S(=O)(=O)[O-])c(C)c1S(=O)(=O)[O-].[Na+].[Na+].[Na+].[Na+].[Na+].[Na+].[Na+].[Na+].[Zn+2] [ZnTMPS, reference compound]",% Inhibition of Paw Edema,[2]; [3],0%
same,% Inhibition of Paw Edema,[2]; [4],0%
same,% Inhibition of Paw Edema,[2]; [5],0%
same,% Inhibition of Paw Edema,[2]; [6],0%
same,% Inhibition of Paw Edema,[2]; [7],0%
same,% Inhibition of Paw Edema,[2]; [8],0%
MnTPPS [reference compound],inhibition of edema formation,[2]; 30 mg/kg i.v.,failed to inhibit edema formation
